Drawing on publication PMC9894184 (Proceedings of the National Academy of Sciences of the …, 2022), this text covers Km for 1 molecule.

The experiment deals with dFASN (FASN1), recombinant full-length (Drosophila melanogaster, UniProt B7Z001). Nature of the experiment: NADPH oxidation FASN activity assay, Michaelis-Menten fit. It counts as biochemical. Particulars: 240 µM NADPH, 58 µM malonyl-CoA fixed.

Molecules are shown by their SMILES.

Chain of dFASN (FASN1), recombinant full-length (B7Z001 1-2540): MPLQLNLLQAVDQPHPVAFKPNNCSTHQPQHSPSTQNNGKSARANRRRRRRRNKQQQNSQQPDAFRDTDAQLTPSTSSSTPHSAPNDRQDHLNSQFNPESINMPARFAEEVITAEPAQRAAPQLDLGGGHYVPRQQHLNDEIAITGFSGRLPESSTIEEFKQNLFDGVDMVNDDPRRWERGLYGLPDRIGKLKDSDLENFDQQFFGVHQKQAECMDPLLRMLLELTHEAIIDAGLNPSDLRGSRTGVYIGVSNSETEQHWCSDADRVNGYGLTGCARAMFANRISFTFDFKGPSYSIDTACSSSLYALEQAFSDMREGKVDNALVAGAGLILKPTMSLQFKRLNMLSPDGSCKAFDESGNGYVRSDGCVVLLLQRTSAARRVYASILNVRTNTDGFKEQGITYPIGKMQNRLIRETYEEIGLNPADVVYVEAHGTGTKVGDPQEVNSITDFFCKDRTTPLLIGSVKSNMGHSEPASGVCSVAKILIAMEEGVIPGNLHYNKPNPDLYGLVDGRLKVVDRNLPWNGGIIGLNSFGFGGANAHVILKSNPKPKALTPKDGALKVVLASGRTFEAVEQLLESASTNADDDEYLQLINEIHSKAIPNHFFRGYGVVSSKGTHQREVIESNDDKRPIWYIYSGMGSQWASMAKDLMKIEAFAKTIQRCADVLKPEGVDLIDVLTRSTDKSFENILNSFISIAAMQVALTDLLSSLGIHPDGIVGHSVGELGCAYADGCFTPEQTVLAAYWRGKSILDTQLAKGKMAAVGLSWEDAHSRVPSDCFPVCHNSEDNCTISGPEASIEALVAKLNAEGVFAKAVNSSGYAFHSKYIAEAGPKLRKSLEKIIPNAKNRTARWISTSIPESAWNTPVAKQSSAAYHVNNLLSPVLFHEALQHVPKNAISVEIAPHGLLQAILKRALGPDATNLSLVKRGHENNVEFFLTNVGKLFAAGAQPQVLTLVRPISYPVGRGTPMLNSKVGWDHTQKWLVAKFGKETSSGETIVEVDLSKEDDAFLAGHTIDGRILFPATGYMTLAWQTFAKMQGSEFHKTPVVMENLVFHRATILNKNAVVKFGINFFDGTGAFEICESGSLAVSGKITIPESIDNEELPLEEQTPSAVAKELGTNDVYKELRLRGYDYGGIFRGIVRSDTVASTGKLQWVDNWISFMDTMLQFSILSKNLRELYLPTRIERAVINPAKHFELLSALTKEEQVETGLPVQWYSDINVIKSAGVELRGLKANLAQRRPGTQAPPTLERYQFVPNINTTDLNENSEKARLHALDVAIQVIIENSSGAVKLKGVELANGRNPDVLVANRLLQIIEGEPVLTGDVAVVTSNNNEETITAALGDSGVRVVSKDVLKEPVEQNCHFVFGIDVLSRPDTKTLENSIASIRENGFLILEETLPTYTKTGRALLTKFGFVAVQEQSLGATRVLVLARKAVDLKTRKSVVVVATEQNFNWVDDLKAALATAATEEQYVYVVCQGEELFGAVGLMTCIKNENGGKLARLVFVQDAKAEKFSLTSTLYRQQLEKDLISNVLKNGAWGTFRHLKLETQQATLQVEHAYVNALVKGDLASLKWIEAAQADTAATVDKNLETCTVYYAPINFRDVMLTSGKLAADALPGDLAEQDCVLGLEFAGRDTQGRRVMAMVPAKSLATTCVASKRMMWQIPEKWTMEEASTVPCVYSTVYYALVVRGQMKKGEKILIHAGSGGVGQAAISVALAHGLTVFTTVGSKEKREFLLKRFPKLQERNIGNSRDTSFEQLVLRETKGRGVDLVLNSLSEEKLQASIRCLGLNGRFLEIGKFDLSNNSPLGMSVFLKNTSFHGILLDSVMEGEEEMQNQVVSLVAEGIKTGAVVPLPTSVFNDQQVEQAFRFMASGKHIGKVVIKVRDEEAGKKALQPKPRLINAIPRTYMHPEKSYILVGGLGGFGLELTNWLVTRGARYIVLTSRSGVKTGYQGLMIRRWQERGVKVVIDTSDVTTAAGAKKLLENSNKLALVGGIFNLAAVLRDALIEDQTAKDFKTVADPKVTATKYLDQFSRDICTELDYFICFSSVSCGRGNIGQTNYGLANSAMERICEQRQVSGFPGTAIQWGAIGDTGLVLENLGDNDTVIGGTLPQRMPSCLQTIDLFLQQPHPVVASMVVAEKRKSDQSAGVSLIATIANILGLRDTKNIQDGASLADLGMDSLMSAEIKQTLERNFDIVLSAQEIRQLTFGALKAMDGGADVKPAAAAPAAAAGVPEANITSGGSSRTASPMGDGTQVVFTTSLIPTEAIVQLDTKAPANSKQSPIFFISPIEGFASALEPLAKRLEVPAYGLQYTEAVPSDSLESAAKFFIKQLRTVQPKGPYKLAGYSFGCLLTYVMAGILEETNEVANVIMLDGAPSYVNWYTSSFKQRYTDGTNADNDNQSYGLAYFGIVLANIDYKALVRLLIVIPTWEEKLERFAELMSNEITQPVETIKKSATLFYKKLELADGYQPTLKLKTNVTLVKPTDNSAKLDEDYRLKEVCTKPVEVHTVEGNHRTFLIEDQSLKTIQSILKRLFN

Regarding `CC(=O)SCCNC(=O)CCNC(=O)[C@H](O)C(C)(C)COP(=O)(O)OP(=O)(O)OC[C@H]1O[C@@H](n2cnc3c(N)ncnc32)[C@H](O)[C@@H]1OP(=O)(O)O` [acetyl-CoA], the Km result was “Steady-state kinetics over AcCoA was also evaluated”.
